From EP1148048A2, “Polyaromatic antiviral compositions” (PHARMACIA & UPJOHN COMPANY, priority 1997, dated 1998)
Read-outs that look alike come from different tables or passages of the source.

Assays:
Format in all cases: cell-based
HSV-1 = assay: Virus yield reduction assay, inhibition of HSV-1 viral replication in Vero cells; conditions: read-out: % Inhibition Against HSV-1 Viral Replication
Experimental: (§1) Compounds of the formulas II and III of the present invention are evaluated in an assay to measure the inhibition of HSV-1 viral replication in the presence of drug over a 14-16 hour period. The assay is discussed in detail by Pritchard, M.N. et al. "A Microliter Virus Yield Reduction Assay for the Evaluation of Antiviral Compounds Against Human Cytomegalovirus and Herpes Simplex Virus", J. Virol. Meth., Vol. 28, pp 101-106 (1990). Briefly, 80% confluent monolayers of Vero cells in 24 well plates are infected with low multiplicities of HSV-1 (MOI = .001). After an absorption period of 1 hour at 37 °C, the monolayers are rinsed with culture media and aliquots of compounds diluted into tissue culture media are added for 14-16 hours at 37 °C in a CO2 atmosphere. The growth media is removed and 1 ml of fresh media is added to each well and plates are placed at -70 °C. After a 1-5 day storage period the plates are rapidly thawed, samples are collected on ice and titrated on fresh Vero cell monolayers. Viral plaques are stained with 0.1% crystal violet in 20% alcohol for 10 minutes and are counted. Data are calculated to reflect the percentage of inhibition at indicated concentration relative to infected, non-drug treated controls.

HSV-2 = assay: Virus yield reduction assay, inhibition of HSV-2 viral replication (substantially the same assay as for HSV-1)
Experimental: as §1
Compounds of the formulas II and III of the present invention are also evaluated in substantially the same assay as described above to measure the inhibition of HSV-2 viral replication.

VZV = assay: Plaque reduction assay, VZV replication in HFF cells over five days
Experimental: Antiviral activity against VZV are evaluated in an assay to measure the reduction of viral replication in the number viral plaques formed over five days of incubation in the presence of compounds of the present invention. Aliquots of VZV are added for 90 minutes to 24 well plates having HFF cells at 80% confluence to yield approximately 25 plaques for media treated wells. The plates are flicked and dilutions of compounds in tissue culture media at 2 time strength are added (0.5 ml per well). Immediately following the addition of drug 0.5 ml of 1.0% agarose is added to the wells and the plates are gently tapped to aid mixing. This final concentration of agarose (0.5%) is insufficient to solidify at 37 °C and serves as a semi solid overlay medium. Plates are undisturbed for five days. On day 5 the plates are examined microscopically for toxicity and plaques are counted using low power microscopy.

[1] = Human alphaherpesvirus 1, 14 h, 5 µm, Vero cells, MOI = .001, 14-16 hours
[2] = Human alphaherpesvirus 1, 14 h, 30 µm, Vero cells, MOI = .001, 14-16 hours
[3] = Human alphaherpesvirus 1, Vero, 14 h

Row | SMILES | inhibition at 5 µM (HSV-1; [1]) | inhibition at 30 µM (HSV-1; [2]) | inhibition at 5 µM (HSV-1; [3]) | inhibition at 30 µM (HSV-1; [3]) | also measured
1 | CSC(=Nc1ccccc1)Nc1ccc(Oc2ccc(NC(=Nc3ccccc3)SC)cc2)cc1 [Example 5, dimethyl N,N"-(oxydi-4,1-phenylene)bis [N'-(phenyl) carbamimidothioate]] | < 0% | 0 to 50% |  |  | 
2 | O=C(Nc1ccc(Oc2ccc(NC(=O)c3ccco3)cc2)cc1)c1ccco1 [Example 16, N,N"-(oxydi-4,1-phenylene)bis(2-furancarboxamide)] |  |  | 0 to 50% | 50 to 90% | 
3 | N=C(Nc1ccc(Cc2ccc(NC(=N)c3ccccc3)cc2)cc1)c1ccccc1 [Example 13, N,N"-(methylenedi-4,1-phenylene)bis [benzenecarboximidamide]] |  |  | 0 to 50% | > 90% | % Inhibition Against HSV-2 Viral Replication (HSV-2; 1µm): + (<50% inhibition at the indicated concentration); % Inhibition Against HSV-2 Viral Replication (HSV-2; 10 µm): +++ (>90% inhibition at the indicated concentration); % Inhibition Against VZV Viral Replication (VZV; 2µm): + (<50% inhibition at the indicated concentration)
4 | Cc1ccc(NS(=O)(=O)c2cccc(S(=O)(=O)Nc3ccc(C)cc3)c2)cc1 [Example 10, N,N"-(1,3-phenylene)bis[N-(p-tolyl)aminosulfonyl]] |  |  | 0 to 50% | 50 to 90% | 
5 | CSC(=NCCc1ccccc1)Nc1ccc(Oc2ccc(NC(=NCCc3ccccc3)SC)cc2)cc1 [Example 12, dimethyl N,N"-(oxydi-4,1-phenylene)bis[N'-(2-phenylethyl)carbamimidothioate]] | 50 to 90% | > 90% |  |  | % Inhibition Against HSV-2 Viral Replication (HSV-2; 1µm): + (<50% inhibition at the indicated concentration); % Inhibition Against HSV-2 Viral Replication (HSV-2; 10 µm): ++ (> 50% inhibition at the indicated concentration); % Inhibition Against VZV Viral Replication (VZV; 2µm): +++ (>90% inhibition at the indicated concentration)
6 | O=[N+]([O-])c1ccc(NC(=S)Nc2ccc(Oc3ccc(NC(=S)Nc4ccc([N+](=O)[O-])cc4)cc3)cc2)cc1 [Example 14, N,N"-(oxydi-4,1-phenylene)bis[N'-(4-nitrophenyl)thiourea]] | < 0% | 0 to 50% |  |  | 
7 | COc1ccc(NC(=S)Nc2ccc([N+](=O)[O-])cc2)cc1NC(=S)Nc1ccc([N+](=O)[O-])cc1 [Example 7, N,N"-(4-methoxy-1,3-phenylene)bis[N'-(4-nitrophenyl)thiourea]] | < 0% | 0 to 50% |  |  | 
8 | Cc1ccc(NC(=S)Nc2ccc(Cl)cc2)cc1NC(=S)Nc1ccc(Cl)cc1 [Example 1, N,N"-(4-methyl-1,3-phenylene)bis[N'-(4-chlorophenyl)thiourea]] |  |  | < 0% | 0 to 50% | 
9 | CSC(=Nc1ccc([N+](=O)[O-])cc1)Nc1ccc(Oc2ccc(NC(=Nc3ccc([N+](=O)[O-])cc3)SC)cc2)cc1 [Example 8, dimethyl N,N"-(oxydi-4,1-phenylene)bis[N'-(4-nitrophenyl)carbamimidothioate]] | < 0% | 0 to 50% |  |  | 
10 | COc1ccc(NC(=S)Nc2ccc(Cl)cc2)cc1NC(=S)Nc1ccc(Cl)cc1 [Example 6, N,N"-(4-methoxy-1,3-phenylene)bis[N'-(4-chlorophenyl)thiourea]] |  |  | < 0% | 0 to 50% | 
11 | COc1cccc(NS(=O)(=O)c2ccc(Oc3ccc(S(=O)(=O)Nc4cccc(OC)c4)cc3)cc2)c1 [Example 9, bis[N-(3-methoxyphenyl)aminosulfonyl](oxydi-4,1-phenylene)] |  |  | 0 to 50% | > 90% | 
12 | O=[N+]([O-])c1ccc(NC(=S)Nc2ccc(Cc3ccc(NC(=S)Nc4ccc([N+](=O)[O-])cc4)cc3)cc2)cc1 [Example 23, N, N"-(methylenedi-4,1-phenylene)bis[N'-(4-nitrophenyl)thiourea]] | < 0% | > 90% |  |  | % Inhibition Against VZV Viral Replication (VZV; 10µm): + (<50% inhibition at the indicated concentration)
13 | COc1ccc(NC(=O)Nc2ccc([N+](=O)[O-])cc2)cc1NC(=O)Nc1ccc([N+](=O)[O-])cc1 [Example 2, N,N"-(4-methoxy-1,3-phenylene)bis[N'-(4-nitrophenyl)urea]] | < 0% | 50 to 90% |  |  | 
14 | O=S(=O)(c1ccc(O)cc1)c1ccc(OCc2ccc(Cl)cc2)cc1 [Example 22, (4-chlorobenzyloxy)hydroxy(sulfonyldi-4,1-phenylene)] |  |  | < 0% | 50 to 90% | 
15 | O=[N+]([O-])c1ccc(COc2ccc(S(=O)(=O)c3ccc(O)cc3)cc2)cc1 [Example 21, hydroxy(4-nitrobenzyloxy)(sulfonyldi-4,1-phenylene)] |  |  | < 0% | 50 to 90% | 
16 | O=S(=O)(c1ccc(OCc2ccncc2)cc1)c1ccc(OCc2ccncc2)cc1 [Example 19, bis[(4-pyridyl)methoxy](sulfonyldi-4,1-phenylene)] |  |  | 0 to 50% | 0 to 50% | 
17 | Cc1cccc(NS(=O)(=O)c2ccc(Oc3ccc(S(=O)(=O)Nc4cccc(C)c4)cc3)cc2)c1 [Example 11, bis[N-(3-methylphenyl)aminosulfonyl](oxydi-4,1-phenylene)] |  |  | < 0% | 50 to 90% | 
18 | O=S(=O)(c1ccc(OCc2ccc(Cl)cc2)cc1)c1ccc(OCc2ccc(Cl)cc2)cc1 [Example 17, bis(4-chlorobenzyloxy)(sulfonyldi-4,1-phenylene)] |  |  | 0 to 50% | 50 to 90% | % Inhibition Against HSV-2 Viral Replication (HSV-2; 1µm): ++ (> 50% inhibition at the indicated concentration); % Inhibition Against HSV-2 Viral Replication (HSV-2; 10 µm): ++ (> 50% inhibition at the indicated concentration); % Inhibition Against VZV Viral Replication (VZV; 2µm): ++ (> 50% inhibition at the indicated concentration)
19 | COc1ccc(NC(=O)Nc2ccc(Cl)cc2)cc1NC(=O)Nc1ccc(Cl)cc1 [Example 3, N,N"-(4-methoxy-1,3-phenylene)bis[N'-(4-chlorophenyl)urea]] |  |  | 0 to 50% | 0 to 50% | 
20 | S=C(NCCc1ccccc1)Nc1ccc(Oc2ccc(NC(=S)NCCc3ccccc3)cc2)cc1 [Example 15, N,N''-(oxydi-4,1-phenylene)bis[N'-(2-phenylethyl)thiourea]] |  |  | 0 to 50% | 0 to 50% | % Inhibition Against HSV-2 Viral Replication (HSV-2; 1µm): + (<50% inhibition at the indicated concentration); % Inhibition Against HSV-2 Viral Replication (HSV-2; 10 µm): + (<50% inhibition at the indicated concentration); % Inhibition Against VZV Viral Replication (VZV; 2µm): +++ (>90% inhibition at the indicated concentration)
21 | O=S(=O)(c1ccc(OCc2ccc(Br)cc2)cc1)c1ccc(OCc2ccc(Br)cc2)cc1 [Example 18, bis(4-bromobenzyloxy)(sulfonyldi-4,1-phenylene)] |  |  | 0 to 50% | 50 to 90% | % Inhibition Against VZV Viral Replication (VZV; 10µm): +++ (>90% inhibition at the indicated concentration)
22 | O=S(=O)(c1ccc(OCc2ccc(F)cc2)cc1)c1ccc(OCc2ccc(F)cc2)cc1 [Example 20, bis(4-fluorobenzyloxy)(sulfonyldi-4,1-phenylene)] |  |  | 0 to 50% | 50 to 90% | 
23 | COc1ccc(NC(=O)Nc2ccc(C)cc2)cc1NC(=O)Nc1ccc(C)cc1 [Example 4, N,N"-(4-methoxy-1,3-phenylene)bis[N'-(p-tolyl)urea]] |  |  | 0 to 50% | 0 to 50% | 
